Laboratory results reported in patent US5382596A, “Substituted 2-aminotetralins” (priority 1993, dated 1995).
Counter-ions that a name gives are not always drawn. Like-named read-outs stand apart in the source and are kept apart here.

Key:
[1] = system: denervated supersensitive postsynaptic dopamine receptors; assay: In vivo functional test: contralateral circling in rats with unilateral 6-hydroxydopamine lesions of the substantia nigra; parameters: species or system rat; settings: for ED50: contralateral circling, rats, unilateral 6-hydroxydopamine lesion
Excerpt: Dopamine agonists produce contralateral circling behavior in rats in which unilateral lesions of the substantial nigra are made by prior injection of 6-hydroxydopamine. The circling is thought to be mediated by stimulation of denervated supersensitive postsynaptic dopamine receptors (Marshall and Ungerstedt, 1977, Eur. J. Pharmacol., 41:361-367).

adrenergic α2 receptor = target: T1, adrenergic α2 receptor (Rattus norvegicus, UniProt P22909); assay: Adrenergic α2 in vitro functional test (rat vas deferens, inhibition of twitch); assay type: biochemical
T1 sequence (P22909 1-465): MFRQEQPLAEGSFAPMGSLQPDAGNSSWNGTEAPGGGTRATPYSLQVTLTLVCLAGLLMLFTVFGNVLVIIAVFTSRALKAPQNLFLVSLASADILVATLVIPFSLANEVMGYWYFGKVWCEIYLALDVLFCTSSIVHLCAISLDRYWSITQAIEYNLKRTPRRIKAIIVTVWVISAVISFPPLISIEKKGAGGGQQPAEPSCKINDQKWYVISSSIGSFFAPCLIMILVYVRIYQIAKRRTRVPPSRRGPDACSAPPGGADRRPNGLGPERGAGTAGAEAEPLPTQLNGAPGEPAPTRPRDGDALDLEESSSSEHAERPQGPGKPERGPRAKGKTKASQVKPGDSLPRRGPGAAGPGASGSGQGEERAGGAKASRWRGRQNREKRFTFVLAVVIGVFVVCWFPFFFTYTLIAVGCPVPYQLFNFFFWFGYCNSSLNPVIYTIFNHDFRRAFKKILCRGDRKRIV
Procedure: Vasa deferentia from male Sprague-Dawley rats weighing between 150-250 g were removed and placed in isolated organ baths containing Krebs-Henseleitsolution under a resting tension of 1 g. All other set up conditions were identical to those used for the mouse was deferens. Tissues were pretreated with propranolol (1 μM), ascorbic acid (100 μM) and the α1 -adrenergic antagonist prazosin (0.3 or 1 μM) for 60 min before the addition of test compound.

dopamine D2 receptor [2] = target: dopamine D2 receptor (Mus musculus, UniProt P61168); assay: biochemical; assay type: biochemical; settings: for EC50: concentration that produces 50% of the maximal inhibition of twitch, mouse vas deferens, read-out: D2 A50
Chain of dopamine D2 receptor (P61168 whole entry): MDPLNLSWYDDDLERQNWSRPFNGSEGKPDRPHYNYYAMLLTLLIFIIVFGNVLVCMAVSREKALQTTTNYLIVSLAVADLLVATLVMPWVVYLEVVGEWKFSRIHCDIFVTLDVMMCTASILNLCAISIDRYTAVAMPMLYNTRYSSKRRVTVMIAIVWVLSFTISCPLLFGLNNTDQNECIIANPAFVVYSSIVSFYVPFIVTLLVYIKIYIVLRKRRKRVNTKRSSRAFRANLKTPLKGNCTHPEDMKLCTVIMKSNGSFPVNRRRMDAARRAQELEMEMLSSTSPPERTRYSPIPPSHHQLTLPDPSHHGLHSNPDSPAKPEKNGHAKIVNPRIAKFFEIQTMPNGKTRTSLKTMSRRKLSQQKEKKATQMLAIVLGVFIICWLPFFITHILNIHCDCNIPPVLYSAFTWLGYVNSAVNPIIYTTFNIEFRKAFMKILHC
Procedure: Vasa deferentia from male BALB/C mice weighing approximately 30 g were removed and placed in isolated organ baths containing magnesium-free modified Krebs-Henseleit solution which was gassed with 95% O2 and 5% CO2 and maintained at 37° C. Tissues were set up under resting tension of 0.5 g and stimulated electrically at 60 volts, 0.1 Hz and 1 msec duration to produce a series of twitch responses. Tissues were pretreated with propranolol (1 μM) to block β-adrenoceptors, idazoxan (3 μM) to block α2 -adrenoceptors receptors, and ascorbic acid (100 μM) for 60 min before the addition of test compound.

Dopamine D1 receptor = Dopamine D1 receptor (Bos taurus, UniProt Q95136); assay: biochemical; assay type: binding, bovine; settings: bovine caudate membranes, 3H-SCH23390, 37° C., 15 min; read-out: D1 K1
Chain of Dopamine D1 receptor (Q95136 whole entry): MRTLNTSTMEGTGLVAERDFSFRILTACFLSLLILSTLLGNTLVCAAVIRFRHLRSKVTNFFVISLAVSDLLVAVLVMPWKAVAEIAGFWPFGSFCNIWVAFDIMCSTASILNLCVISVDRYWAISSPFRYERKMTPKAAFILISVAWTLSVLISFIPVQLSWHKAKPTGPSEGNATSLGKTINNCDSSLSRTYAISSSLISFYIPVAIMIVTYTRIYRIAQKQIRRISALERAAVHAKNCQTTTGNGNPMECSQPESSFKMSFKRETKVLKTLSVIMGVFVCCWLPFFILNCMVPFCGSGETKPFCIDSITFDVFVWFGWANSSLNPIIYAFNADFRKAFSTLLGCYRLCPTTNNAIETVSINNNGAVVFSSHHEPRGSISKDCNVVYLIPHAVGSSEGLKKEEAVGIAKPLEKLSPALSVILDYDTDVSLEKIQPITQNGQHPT
Procedure: (§1) Membranes were prepared using a Brinkmann Polytron and collected by centrifugation. Membrane sources were bovine caudate (D2,D1) or rat cortex (α2). The membranes were washed, resuspended, and incubated at 37° C. for 30 min. in either the presence (rat cortex) of 1 μ/ml adenosine deaminase or absence (bovine caudate) of 0.1 μ/ml adenosine deaminase. Membranes were centrifuged, washed once and frozen at -70° C. until used. Immediately before use, the membranes were thawed, washed once, and resuspended to a final concentration of 0.5-2 mg/ml. Assays were initiated by addition of membranes. For D2 and D1 assays, the radioligands and conditions used were ^3 H-Spiperone (RT, 75 min.) and ^3 H-SCH23390 (37° C., 15 min.), respectively. For α2 assays, ^3 H-PAC (RT, 30 min.) was used Assays were terminated by filtration using a Brandel cell harvester over Whatman GF/B filters that had been pretreated with 0.1% polyethylenimine. […]

Dopamine D2 receptor [3] = target: Dopamine D2 receptor (Bos taurus, UniProt P20288); assay: biochemical; assay type: binding, bovine; settings: for Ki: bovine caudate membranes, 3H-Spiperone, RT, 75 min, read-out: D2 K1
Chain of Dopamine D2 receptor (P20288 whole entry): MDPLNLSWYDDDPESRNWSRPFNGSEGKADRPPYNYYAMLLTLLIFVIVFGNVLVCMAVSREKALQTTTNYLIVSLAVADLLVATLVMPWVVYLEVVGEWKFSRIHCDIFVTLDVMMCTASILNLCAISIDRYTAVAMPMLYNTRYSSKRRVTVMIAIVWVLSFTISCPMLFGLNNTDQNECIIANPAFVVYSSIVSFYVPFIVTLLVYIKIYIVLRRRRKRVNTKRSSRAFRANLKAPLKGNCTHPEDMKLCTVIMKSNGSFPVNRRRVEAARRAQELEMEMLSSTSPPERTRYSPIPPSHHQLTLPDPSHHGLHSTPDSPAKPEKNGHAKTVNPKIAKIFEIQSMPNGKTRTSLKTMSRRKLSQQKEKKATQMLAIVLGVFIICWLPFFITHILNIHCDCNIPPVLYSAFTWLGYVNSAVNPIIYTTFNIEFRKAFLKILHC
Procedure: as §1

[4] = concentration that produces 50% of the maximal inhibition of twitch, rat vas deferens, read-out: a2 A50

SMILES | ED50 [1] | EC50 (adrenergic α2 receptor; [4]) | Specificity Ratio (a2 A50/D2 A50) (dopamine D2 receptor [2]) | EC50 (dopamine D2 receptor [2]) | Ki (Dopamine D1 receptor) | Selectivity Ratio (D1 K1/D2 K1) (Dopamine D2 receptor [3]) | Ki (Dopamine D2 receptor [3]) | in vivo functional potency (in words) ([1]; rat, in vivo) | dopamine D2 receptor in vitro functional activity/potency (in words) (dopamine D2 receptor [2]) | D2 receptor specificity (in words) (dopamine D2 receptor [2]; D2 vs. α2) | dopamine D2 receptor affinity (in words) (Dopamine D2 receptor [3]) | D2 receptor selectivity (in words) (Dopamine D2 receptor [3]; D2 vs. D1) | EC50 (adrenergic α2 receptor)
CCCN(CCOC(C)C)[C@H]1CCc2c(ccc(O)c2O)C1.Cl [Example 1, (S)-5,6,7,8-Tetrahydro-6-[[2-(1-methylethoxy)ethyl]-propylamino]-1,2-naphthalenediol, hydrochloride] | 0.004 µmol/kg | 218 nM | 1480 | 0.148 nM | 7240 nM | 112 | 65 nM |  |  |  |  |  | 
CCCN(CCOCC)[C@H]1CCc2c(ccc(O)c2O)C1 [Example 2, (S)-6-[[2-(ethoxy)ethyl]propylamino]-5,6,7,8-tetrahydro-1,2-naphthalenediol] | 0.004 µmol/kg | 18.6 nM | 45 | 0.417 nM | 6310 nM | 20 | 316 nM |  |  |  |  |  | 
CCCN(CCOCC1CC1)[C@H]1CCc2c(ccc(O)c2O)C1 [Example 3] | 0.007 µmol/kg | 195 nM | 1860 | 0.105 nM | 4790 nM | 74 | 65 nM |  |  |  |  |  | 
CCCN(CCOC(C)CC)[C@H]1CCc2c(ccc(O)c2O)C1 (some centres unmarked) [Example 5] | 0.006 µmol/kg | 245 nM | 1020 | 0.24 nM | 4570 nM | 40 | 115 nM |  |  |  |  |  | 
CCCN(CCOC1CCCC1)[C@H]1CCc2c(ccc(O)c2O)C1 [Example 6] | 0.008 µmol/kg | 87.1 nM | 537 | 0.162 nM | 5010 nM | 98 | 51 nM |  |  |  |  |  | 
CCCOCCN(CCC)[C@H]1CCc2c(ccc(O)c2O)C1 [Example 7, (S)-5,6,7,8-tetrahydro-6-[[2-(propoxy)ethyl]propylamino]-1,2-naphthalenediol] | 0.002 µmol/kg | 148 nM | 186 | 0.794 nM | 4680 nM | 36 | 129 nM |  |  |  |  |  | 
CCCCOCCN(CCC)[C@H]1CCc2c(ccc(O)c2O)C1 [Example 8, (S)-6-[[2-(butoxy)ethyl]propylamino]-5,6,7,8-tetrahydro-1,2-naphthalenediol] | 0.004 µmol/kg | 107 nM | 398 | 0.269 nM | 5890 nM | 52 | 112 nM |  |  |  |  |  | 
CCCN(CCOC(C)(C)C)[C@H]1CCc2c(ccc(O)c2O)C1 [Example 9, (S)-6-[[2-(1,1-dimethylethoxy)ethyl]propylamino]-5,6,7,8-tetrahydro-1,2-naphthalenediol] | 0.004 µmol/kg | 144 nM | 1620 | 0.089 nM | 8910 nM | 166 | 54 nM | high in vivo functional potency | high affinity, selectivity, specificity, and functional potency | high affinity, selectivity, specificity | high affinity | high affinity, selectivity | 
CCCCCOCCN(CCC)[C@H]1CCc2c(ccc(O)c2O)C1 [Example 10] | 0.030 µmol/kg | 93.3 nM | 1000 | 0.093 nM | 2450 nM | 46 | 54 nM |  |  |  |  |  | 
CCCN(CCC1CCCO1)[C@H]1CCc2c(ccc(O)c2O)C1 (some centres unmarked) [Example 11] | 0.010 µmol/kg | 79.4 nM | 62 | 1.29 nM | 4270 nM | 141 | 30 nM |  |  |  |  |  | 
CCCN(CCC1CCCCO1)[C@H]1CCc2c(ccc(O)c2O)C1 (some centres unmarked) [Example 12] | 0.030 µmol/kg | 199 nM | 1000 | 0.2 nM | 5490 nM | 224 | 25 nM |  |  |  |  |  | 
CCCN(CCCOC(C)C)[C@H]1CCc2c(ccc(O)c2O)C1 [Example 13] | 0.006 µmol/kg | 93.3 nM | 914 | 0.102 nM | 5750 nM | 113 | 51 nM |  |  |  |  |  | 
CCCN(CCC1CCOC1)[C@H]1CCc2c(ccc(O)c2O)C1 (some centres unmarked) [Example 14] | 0.030 µmol/kg | 14.8 nM | 71 | 0.209 nM | 6610 nM | 34 | 195 nM |  |  |  |  |  | 
CCCN(CC1CCOC1)[C@H]1CCc2c(ccc(O)c2O)C1 (some centres unmarked) [Example 15] | 0.009 µmol/kg | 16.6 nM | 118 | 0.141 nM | 1100 nM | 1 | 1100 nM |  |  |  |  |  | 
CCCN(CCOC1CCCC1)[C@H]1CCc2c(O)cccc2C1 [Example 16] | 0.090 µmol/kg | > 10000 nM | > 19500 | 0.513 nM | 7940 nM | 129 | 62 nM |  |  |  |  |  | 
CCCN(CCOC1CC1)[C@H]1CCc2c(O)cccc2C1 [Example 17] | 0.009 µmol/kg | > 10000 nM | > 17000 | 0.589 nM | 9770 nM | 21 | 468 nM |  |  |  |  |  | 
CCCN(CCOC1CCC1)[C@H]1CCc2c(O)cccc2C1 [Example 18] | 0.020 µmol/kg | > 10000 nM | > 14800 | 0.676 nM | 8910 nM | 45 | 200 nM |  |  |  |  |  | 
CCN(CCC1CCCO1)[C@H]1CCc2c(O)cccc2C1 (some centres unmarked) [Example 25] |  | > 10000 nM | > 14100 | 0.708 nM | 6610 nM | 57 | 117 nM |  |  |  |  |  | 
CCCN(CCOC(C)C)[C@H]1CCc2c(ccc3c2OCO3)C1.Cl [Example 26, (S)-6,7,8,9-Tetrahydro-N-[2-(1-methylethoxy)ethyl]-N-propylnaphtho[1,2-d]-1,3-dioxol-7-amine, hydrochloride] | 0.030 µmol/kg |  |  |  |  |  |  |  |  |  |  |  | 
CCCN(CCOCC)[C@H]1CCc2c(ccc3c2OCO3)C1 [Example 27] | 0.100 µmol/kg |  |  |  |  |  |  |  |  |  |  |  | 
CCCOCCN(CCC)[C@H]1CCc2c(ccc3c2OCO3)C1 [Example 28] | 0.100 µmol/kg |  |  |  |  |  |  |  |  |  |  |  | 
CCCN(CCOC(C)(C)C)[C@H]1CCc2c(ccc3c2OCO3)C1 [Example 29] | 0.040 µmol/kg |  |  |  |  |  |  |  |  |  |  |  | 
CCCN(CCOC(C)C)[C@H]1CCc2c(ccc3oc(=O)oc23)C1 [Example 38, (S)-5,6,7,8-Tetrahydro-6-[[2-(1-methylethoxy)ethyl]-propylamino]-1,2-naphthalenediol, cyclic carbonate, hydrochloride] | 0.005 µmol/kg |  |  |  |  |  |  |  |  |  |  |  | 
CCCN(CCC)[C@H]1CCc2c(ccc(O)c2O)C1 [Example 40, (S)-5,6-dihydroxy-2-(di-n-propyl)aminotetralin, reference compound] | 0.009 µmol/kg |  |  |  |  |  |  |  |  |  |  |  | 12.5 nM
